In patent US20080038251A1, “MN/CA IX and MAPK inhibition” (priority 2006, published 2008):
“Also recorded” adds a separate entry of the source.

Columns and labels:
MEK = details: biochemical assays; cited from earlier work
tumor xenograft models = details: cited from earlier work
[1] = compared with CI-1040; cited from earlier work
[2] = compared with CI-1040; cited from earlier work; remark: listed apart in the source
[3] = compared with CI-1040; cited from earlier work; remark: listed apart in the source
PR1-HRE CA9 promoter [4] = experiment: PR1-HRE-luc CA9 promoter luciferase-renilla reporter assay in HEK293 cells; format: cell-based, human
Procedure: The inventors used PR1-HRE promoter region of CA9 ([…]) that contains HRE element and SP1 binding site, and assessed its transcriptional activity in luciferase-renilla reporter system. First, the PR1-HRE-luc plasmid was co-transfected together with renilla internal standard to HEK293 cells plated in high density and treated by the U0126 inhibitor of ERK (MAP kinases) for 20 h (FIG. 8). The promoter activity was analyzed in the transfected cells incubated in normoxic conditions or in the presence of DFO that can induce a chemical hypoxia. The promoter activity was determined as a ratio between the luciferase-related luminescence and renilla-related luminescence.
(§1) The PR1-HRE-luc promoter construct was generated by an insertion of a −50/+37 CA9 genomic region amplified by PCR upstream of the firefly luciferase gene in pGL3-Basic luciferase reporter vector (Promega). pRL-TK renilla vector (Promega) served for the control of the transfection efficiency.

PR1-HRE CA9 promoter [5] = experiment: PR1-HRE-luc CA9 promoter luciferase-renilla reporter assay in HeLa cells; format: cell-based, human
Source text: as §1
Therefore, the inventors have cloned a −50/+37 CA9 genomic region, containing that module in its natural context relative to the transcription start site, upstream of the reporter luciferase gene. The PR1-HRE-luc promoter construct was then co-transfected with the renilla-coding control plasmid to HeLa cells that express CA IX protein in response to hypoxia and high cell density.

CA IX protein = experiment: Immunoblotting of endogenous CA IX protein expression in HeLa cells; format: cell-based, human; details: data not shown; for CA IX protein level / hypoxic induction of CA IX protein: Example 9, hypoxia
Procedure: HeLa cells were plated in dense (80,000 cells/cm^2) and sparse (10,000 cells/cm^2) cultures and incubated for 24 h. […] Parallel control dishes were pre-treated and maintained in normoxia for the same time period.
For the detection of CA IX, the cells were extracted with cold RIPA buffer for 15 min at 4° C. The extracts were then centrifuged (15 min at 13,000 rpm) and total protein concentrations were determined by BCA assay (Pierce, Rockford, Ill.). Samples of 30 μg total proteins were separated by the electrophoresis using 10% SDS-PAGE and blotted onto the PVDF membrane. Before immunodetection, the membrane was treated by the blocking buffer containing 5% non-fat milk in PBS with 0.2% Nonidet P-40 for 1 h and incubated for 1 h with M75 MAb diluted 1:2 in the blocking buffer. Then the membrane was washed, incubated for 1 h with the anti-mouse secondary antibody, washed again and developed with the ECL detection system. Intensity of CA IX-specific bands was analyzed by the Scion Image Beta 4.02 software (Scion Corporation, Frederick, Md.), and relative CA IX expression was expressed as percentages.

PR1-HRE CA9 promoter [6] = tested on: PR1-HRE CA9 promoter
Procedure: To dissect a direct contribution of HIF-1 to transcriptional activation of CA9 promoter, the inventors performed an additional experiment using Ka1.13 cell line that is defective for HIF-1α. The Ka1.13 cells were transfected either with PR1-HRE-luc reporter plasmid+renilla standard+control pcDNA3.1 plasmid or with the PR1-HRE-luc reporter plasmid+renilla standard+HIF-1α cDNA.
Cultures were pre-incubated with the inhibitors 1 h before the induction of hypoxia or addition of DFO.
The cells were plated into 30 mm Petri dishes to reach approximately 60% monolayer density on the next day. Transfection was performed with the 2 μg of PR1-HRE-luc and 100 ng of pRL-TK plasmids DNAs using a GenePorterII reagent (Gene Therapy Systems, San Diego, Calif.) according to the manufacturer's recommendation. One day later, the transfected cells were trypsinized and plated in triplicates into 24-well plates at different densities so that the dense culture contained eight times more cells than the sparse one. The cells were allowed to attach for 20 h, then they were pre-treated with inhibitors for 1 h and transferred to hypoxia (or treated with DFO) for additional 24 h. Reporter gene expression was assessed 48 h after the transfection using the Dual-Luciferase Reporter Assay System (Promega) and the luciferase activity was normalized against the renilla expression.
Therefore, the Ka13 cells were plated at intermediate density, transfected with the PR1-HRE-luc promoter construct together with the renilla control plasmid and pcDNA3.1 plasmid, pre-treated with the U0126 MAPK pathway inhibitor and exposed to a DFO-induced hypoxia. Parallel dishes were maintained in absence of DFO.

[7] = Phase I and II clinical trials; cited from earlier work

## Cn1cnc2c(F)c(Nc3ccc(Br)cc3Cl)c(C(=O)NOCCO)cc21 [ARRY-142886]
MEK
  selectivity for MEK: high selectivity for MEK
Tumor xenograft models
  anti-tumor activity: potent anti-tumor activity

## O=C(NOC[C@H](O)CO)c1ccc(F)c(F)c1Nc1ccc(I)cc1F [PD-0325901]
Tumor xenograft models
  anti-tumor activity: potent anti-tumor activity
[1]
  solubility: more soluble
[2]
  metabolic stability: improved metabolic stability
[3]
  bioavailability: improved

## N#CC(=C(/N)Sc1ccccc1N)/C(C#N)=C(\N)Sc1ccccc1N [U0126]
PR1-HRE CA9 promoter [4]; Example 1, HEK293 plated in high density, inhibitor 20 h, normoxia or DFO-induced hypoxia
  PR1-HRE CA9 promoter transcriptional activity (luciferase/renilla ratio): down-regulation of the PR1-HRE CA9 promoter activity; also recorded: diminished PR1-HRE transcriptional activity both in normoxia and in hypoxia
PR1-HRE CA9 promoter [4]; Example 5, HEK293 dense culture exposed to hypoxia, data not shown
  CA9 promoter activity: considerably inhibited; also recorded: remarkable reduction
PR1-HRE CA9 promoter [5]; Example 5, HeLa sparse and dense, normoxia or DFO hypoxia, 20 μM inhibitor
  CA9 promoter activity: about fourfold decrease; also recorded: remarkable reduction
PR1-HRE CA9 promoter [5]; Example 8, dense hypoxic (1% O2) HeLa, 20 μM U0126, 10 μM LY294002
  CA9 promoter activity, fraction of control value: about one third
PR1-HRE CA9 promoter [5]; Example 8, normoxic and sparse HeLa cells, compared with dense hypoxic cells
  effect on CA9 promoter activity: less pronounced
CA IX protein; Example 2, sparse and dense HeLa, normoxia (21% O2) and hypoxia (2% O2)
  CA IX protein expression (Western blotting): evident also at the level of CA IX protein
CA IX protein; Example 5, HeLa, hypoxia and/or high density
  endogenous CA IX protein levels: corresponded with the promoter activities
CA IX protein; HeLa
  CA IX protein level / hypoxic induction of CA IX protein: reduced the CA IX protein level
PR1-HRE CA9 promoter [6]; Example 3, Ka1.13 cells with control pcDNA3.1 or HIF-1α cDNA
  PR1-HRE CA9 promoter transcriptional activity: reduced the CA9 promoter activity in both the presence and absence of HIF-1α; also recorded: diminished transcription from PR1-HRE promoter both in the presence and in the absence of HIF-1α
PR1-HRE CA9 promoter [6]; Example 6, Ka13 co-transfected with wild-type HIF-1α cDNA
  CA9 promoter activity, fraction of HIF-1α induced value: approximately one third
PR1-HRE CA9 promoter [6]; Example 6, Ka13 with empty pcDNA3.1 (no HIF-1α), with and without DFO
  CA9 promoter activity, remaining fraction: less than a half

## Rencarex: an MN-specific drug tested in Phase I and II clinical trials
[7]
  tolerability / drug-related side effects: well-tolerated, with no serious drug-related side effects

## mithramycin A [MMA]
CA IX protein; HeLa
  CA IX protein level / hypoxic induction of CA IX protein: reduced the CA IX protein level
